Test results published in ChEMBL document CHEMBL1201862, “PubChem BioAssay data set” (2004).
Calls of active or inactive are those of the source.

Assays:
[1] = molecular target: T1, Type-1 angiotensin II receptor (Homo sapiens, UniProt P30556); experiment: AT1 receptor antagonists, dose response, selectivity assay for APJ receptor antagonist project, cell-based, uHTS hits (AID 463214); format: functional;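 note: antagonist potency against angiotensin II stimulated AT1 response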
T1 sequence (P30556 whole entry): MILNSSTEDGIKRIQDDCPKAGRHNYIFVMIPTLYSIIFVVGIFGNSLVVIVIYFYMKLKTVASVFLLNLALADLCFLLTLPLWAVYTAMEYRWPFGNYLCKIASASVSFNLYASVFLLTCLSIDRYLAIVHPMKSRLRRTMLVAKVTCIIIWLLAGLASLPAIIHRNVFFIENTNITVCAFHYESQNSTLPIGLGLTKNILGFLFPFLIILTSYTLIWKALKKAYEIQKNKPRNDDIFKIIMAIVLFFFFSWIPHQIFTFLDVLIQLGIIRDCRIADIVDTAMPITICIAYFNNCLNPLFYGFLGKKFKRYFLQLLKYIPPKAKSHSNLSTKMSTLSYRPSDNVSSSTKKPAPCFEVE

Beta-galactosidase = Beta-galactosidase (Escherichia coli, UniProt Q8VNN2); experiment: PubChem AID 485352; format: functional
Mu-type opioid receptor = Mu-type opioid receptor (Homo sapiens, UniProt P35372); format: functional, cell-based;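 note: U2OS cells with beta-arrestin recruitment to OPRM1 by beta-gal complementation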
[2] = molecular target: 5-hydroxytryptamine receptor 2A (Mus musculus, UniProt P35363); format: functional, cell-based;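 note: CHO-K1 cells with tagged receptor and beta-arrestin; agonist potency measured as compound-induced activation of the receptor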
[3] = molecular target: T2, Long-chain-fatty-acid--AMP ligase FadD28 (Mycobacterium tuberculosis, UniProt P9WQ59); experiment: Fluorescence polarization aasay to screen for inhibitors that compete for the binding of FadD28 to a bisubstrate Measured in Biochemical System Using Plate Reader - 2147-01_Inhibitor_Dose_CherryPick_Activity.; format: functional, Mycobacterium tuberculosis H37Rv
T2 sequence (P9WQ59 whole entry): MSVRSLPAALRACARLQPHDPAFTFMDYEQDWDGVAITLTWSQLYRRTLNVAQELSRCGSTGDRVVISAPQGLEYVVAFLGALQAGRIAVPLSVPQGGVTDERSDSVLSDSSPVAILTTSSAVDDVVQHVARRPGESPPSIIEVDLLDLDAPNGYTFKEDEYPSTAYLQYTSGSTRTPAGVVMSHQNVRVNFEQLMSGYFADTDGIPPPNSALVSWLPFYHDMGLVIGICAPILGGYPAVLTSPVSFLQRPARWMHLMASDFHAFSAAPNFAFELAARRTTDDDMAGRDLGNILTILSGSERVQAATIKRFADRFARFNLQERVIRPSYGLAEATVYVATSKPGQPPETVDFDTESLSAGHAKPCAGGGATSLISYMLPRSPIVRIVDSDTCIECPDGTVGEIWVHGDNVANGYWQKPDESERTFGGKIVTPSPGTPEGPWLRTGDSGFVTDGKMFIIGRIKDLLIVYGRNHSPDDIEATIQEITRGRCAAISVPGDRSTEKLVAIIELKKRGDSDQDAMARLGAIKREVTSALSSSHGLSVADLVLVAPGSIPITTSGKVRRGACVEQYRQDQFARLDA

[4] = molecular target: T3, Heat shock factor protein 1 (Mus musculus, UniProt P38532); experiment: HSF1 potentiators in luciferase reporter cells, confirmation, cell-based, NIH3T3, luminescence, dose retest (AID 435004); format: functional;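 note: stress induced by proteasome inhibitor MG132 added 30 min after compound; luciferase reporter driven by HSF1 response element in NIH3T3 cells; actives raise luminescence as potentiators of the MG132 stress response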
T3 sequence (P38532 whole entry): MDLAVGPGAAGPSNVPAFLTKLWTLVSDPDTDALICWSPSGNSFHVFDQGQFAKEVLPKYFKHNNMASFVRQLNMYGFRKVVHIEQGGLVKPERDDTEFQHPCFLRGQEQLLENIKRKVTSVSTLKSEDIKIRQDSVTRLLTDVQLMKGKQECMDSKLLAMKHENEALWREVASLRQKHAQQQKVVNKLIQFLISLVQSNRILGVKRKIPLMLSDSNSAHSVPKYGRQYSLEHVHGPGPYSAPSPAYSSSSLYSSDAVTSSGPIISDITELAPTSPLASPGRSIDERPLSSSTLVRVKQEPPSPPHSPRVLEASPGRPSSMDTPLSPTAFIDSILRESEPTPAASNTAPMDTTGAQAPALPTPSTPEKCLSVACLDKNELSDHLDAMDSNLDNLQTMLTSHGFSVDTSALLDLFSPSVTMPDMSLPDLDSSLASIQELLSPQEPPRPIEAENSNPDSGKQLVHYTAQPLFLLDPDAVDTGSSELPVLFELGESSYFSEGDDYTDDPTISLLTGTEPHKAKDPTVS

Large T antigen = Large T antigen (Simian virus 40, UniProt P03070); format: functional, Betapolyomavirus macacae;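 note: Confirmatory-stage PubChem screen for compounds that inhibit SV40 T antigen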
[5] = molecular target: T4, Adenosylmethionine-8-amino-7-oxononanoate aminotransferase (Mycobacterium tuberculosis, UniProt P9WQ81); experiment: Mycobacterium tuberculosis BioA enzyme inhibitor Measured in Biochemical System Using Plate Reader - 2163-02_Inhibitor_Dose_CherryPick_Activity.; format: functional, Mycobacterium tuberculosis UT205
T4 sequence (P9WQ81 whole entry): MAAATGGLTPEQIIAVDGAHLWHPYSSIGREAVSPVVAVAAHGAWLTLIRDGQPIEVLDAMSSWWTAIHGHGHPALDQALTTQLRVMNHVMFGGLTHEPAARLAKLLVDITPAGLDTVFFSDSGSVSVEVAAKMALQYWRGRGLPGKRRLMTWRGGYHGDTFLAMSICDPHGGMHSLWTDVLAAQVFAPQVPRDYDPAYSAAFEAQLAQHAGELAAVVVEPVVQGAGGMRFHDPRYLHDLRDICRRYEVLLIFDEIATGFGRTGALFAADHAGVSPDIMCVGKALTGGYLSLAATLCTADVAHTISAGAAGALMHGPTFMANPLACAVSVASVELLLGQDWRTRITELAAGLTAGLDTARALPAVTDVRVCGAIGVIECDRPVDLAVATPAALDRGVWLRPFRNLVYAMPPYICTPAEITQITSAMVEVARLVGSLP

Chain of Beta-galactosidase (Q8VNN2 whole entry): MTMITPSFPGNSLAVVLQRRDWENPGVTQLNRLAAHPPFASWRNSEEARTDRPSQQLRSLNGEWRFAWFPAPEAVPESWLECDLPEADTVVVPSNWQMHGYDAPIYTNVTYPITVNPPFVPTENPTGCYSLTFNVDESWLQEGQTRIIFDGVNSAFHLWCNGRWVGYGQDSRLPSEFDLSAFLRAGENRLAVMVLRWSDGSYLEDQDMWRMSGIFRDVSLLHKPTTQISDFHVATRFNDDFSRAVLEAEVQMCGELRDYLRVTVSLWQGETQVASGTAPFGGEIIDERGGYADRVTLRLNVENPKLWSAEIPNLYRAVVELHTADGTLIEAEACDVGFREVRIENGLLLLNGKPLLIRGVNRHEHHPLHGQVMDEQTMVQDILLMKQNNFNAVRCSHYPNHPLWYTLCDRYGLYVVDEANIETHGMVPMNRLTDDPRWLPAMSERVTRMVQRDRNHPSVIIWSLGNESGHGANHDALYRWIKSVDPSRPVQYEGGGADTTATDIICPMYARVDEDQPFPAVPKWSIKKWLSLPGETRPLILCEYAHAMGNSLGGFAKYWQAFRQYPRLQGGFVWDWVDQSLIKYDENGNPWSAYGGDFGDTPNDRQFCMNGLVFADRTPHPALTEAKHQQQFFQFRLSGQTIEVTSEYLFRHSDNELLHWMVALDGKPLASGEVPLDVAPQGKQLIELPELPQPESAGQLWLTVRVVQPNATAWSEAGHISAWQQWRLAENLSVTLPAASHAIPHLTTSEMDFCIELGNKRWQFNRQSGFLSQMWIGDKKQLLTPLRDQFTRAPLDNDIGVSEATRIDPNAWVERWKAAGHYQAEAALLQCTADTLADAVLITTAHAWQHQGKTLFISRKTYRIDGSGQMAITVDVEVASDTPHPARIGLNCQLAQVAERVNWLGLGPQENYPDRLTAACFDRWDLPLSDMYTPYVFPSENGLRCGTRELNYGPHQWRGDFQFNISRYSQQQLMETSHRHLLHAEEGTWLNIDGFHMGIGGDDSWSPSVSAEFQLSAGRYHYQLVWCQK
Chain of 5-hydroxytryptamine receptor 2A (P35363 whole entry): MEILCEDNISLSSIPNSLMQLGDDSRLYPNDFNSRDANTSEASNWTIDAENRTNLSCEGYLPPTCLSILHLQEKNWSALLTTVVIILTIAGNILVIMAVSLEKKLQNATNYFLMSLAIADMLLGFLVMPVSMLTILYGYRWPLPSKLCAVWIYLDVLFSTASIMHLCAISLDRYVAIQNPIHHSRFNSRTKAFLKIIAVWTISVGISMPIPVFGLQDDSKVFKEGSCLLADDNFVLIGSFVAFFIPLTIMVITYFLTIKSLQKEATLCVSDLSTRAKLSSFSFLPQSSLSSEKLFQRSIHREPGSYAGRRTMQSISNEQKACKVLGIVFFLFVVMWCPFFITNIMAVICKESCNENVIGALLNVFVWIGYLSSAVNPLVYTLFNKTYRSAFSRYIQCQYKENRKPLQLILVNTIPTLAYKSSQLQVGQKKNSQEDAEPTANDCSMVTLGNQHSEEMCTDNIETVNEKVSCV
Chain of Mu-type opioid receptor (P35372 whole entry): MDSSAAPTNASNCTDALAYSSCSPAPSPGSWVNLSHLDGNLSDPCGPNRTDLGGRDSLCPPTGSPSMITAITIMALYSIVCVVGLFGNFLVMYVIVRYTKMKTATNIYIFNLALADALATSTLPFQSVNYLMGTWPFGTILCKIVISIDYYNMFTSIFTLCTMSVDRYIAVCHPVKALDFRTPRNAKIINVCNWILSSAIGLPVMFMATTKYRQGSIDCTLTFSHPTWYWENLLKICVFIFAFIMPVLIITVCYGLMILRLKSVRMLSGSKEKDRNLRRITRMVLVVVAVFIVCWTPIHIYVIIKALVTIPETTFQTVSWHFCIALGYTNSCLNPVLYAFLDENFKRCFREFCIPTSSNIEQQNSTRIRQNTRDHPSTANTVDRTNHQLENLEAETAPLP
Chain of Large T antigen (P03070 whole entry): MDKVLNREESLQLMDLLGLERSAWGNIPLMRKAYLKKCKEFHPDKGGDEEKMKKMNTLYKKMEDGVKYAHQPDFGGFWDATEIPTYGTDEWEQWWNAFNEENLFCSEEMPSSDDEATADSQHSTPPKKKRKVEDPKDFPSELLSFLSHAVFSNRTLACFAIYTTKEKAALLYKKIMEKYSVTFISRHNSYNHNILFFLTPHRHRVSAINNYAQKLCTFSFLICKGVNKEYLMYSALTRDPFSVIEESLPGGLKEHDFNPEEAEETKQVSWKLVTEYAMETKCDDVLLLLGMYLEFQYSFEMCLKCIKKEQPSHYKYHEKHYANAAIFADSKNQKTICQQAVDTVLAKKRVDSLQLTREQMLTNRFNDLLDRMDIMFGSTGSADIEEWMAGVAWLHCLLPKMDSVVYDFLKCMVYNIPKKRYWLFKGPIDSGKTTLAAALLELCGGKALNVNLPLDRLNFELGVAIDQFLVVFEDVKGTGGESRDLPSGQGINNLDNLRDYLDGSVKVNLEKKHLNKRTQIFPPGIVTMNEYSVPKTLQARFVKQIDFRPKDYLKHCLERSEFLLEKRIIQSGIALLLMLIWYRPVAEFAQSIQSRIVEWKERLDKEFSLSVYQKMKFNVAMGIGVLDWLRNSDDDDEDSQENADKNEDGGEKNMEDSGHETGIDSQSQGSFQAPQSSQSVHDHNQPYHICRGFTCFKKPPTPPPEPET

With `Cn1nnc(NC(=S)NC(=O)c2cccc3ccccc23)n1` the IC50 [1] was > 40 µM (not active) and the EC50 (Beta-galactosidase) was > 40 µM (inactive).
`O=C(CN1C(=O)C2CC=CCC2C1=O)OCC(=O)c1ccc(Cl)c([N+](=O)[O-])c1` (centres undefined) was tested, and the IC50 [1] was 16.3 µM (active) and the EC50 (Beta-galactosidase) was > 40 µM (inactive).
With `CC1(C)C(C=C(Cl)Cl)C1C(=O)N1CCN(Cc2ccccc2)CC1` (centres undefined) the EC50 (Mu-type opioid receptor) was 92.5 µM (inactive) and the EC50 [2] was 1.21 µM (active).
With `CCCC(=O)C1=C(c2ccccc2)C(C#N)(C#N)C(C#N)=C1N` the AC50 [3] was 32 µM (inactive).
For `CCSC1(SCC)N=C(N)C2(C#N)C(c3ccc(OC)c(OC)c3OC)C12C#N` (centres undefined), the IC50 [1] was 27.5 µM (not active), the EC50 [4] was 6.63 µM (active) and the IC50 (Large T antigen) was > 100 µM (active). For the same compound, the EC50 (Beta-galactosidase) was > 40 µM (inactive).
In the case of `Cc1ccc(CN2CCN(c3ncccn3)CC2)c(C)c1`, the EC50 (Mu-type opioid receptor) is reported as 92.4 µM (inactive) and the EC50 [2] is reported as 0.337 µM (active).
In the case of `Cc1ccc(NC(=O)CSc2nc(=O)n(CCCN3CCOCC3)c3c2CCCC3)cc1F`, the AC50 [5] is reported as 3.18 µM (active).
